In BindingDB's records for doi:10.1016/j.bmc.2013.02.056 (Ludwig-Maximilians-University Munich, 2013):

How the values were obtained:
[1] = target: T1, Sodium- and chloride-dependent GABA transporter 3 (Mus musculus, UniProt P31650); assay: Inhibition of mouse GAT3 expressed in HEK cells assessed as inhibition of [3H]-GABA uptake after 25 mins by liquid scintillation counting analysis
T1 sequence (P31650 whole entry): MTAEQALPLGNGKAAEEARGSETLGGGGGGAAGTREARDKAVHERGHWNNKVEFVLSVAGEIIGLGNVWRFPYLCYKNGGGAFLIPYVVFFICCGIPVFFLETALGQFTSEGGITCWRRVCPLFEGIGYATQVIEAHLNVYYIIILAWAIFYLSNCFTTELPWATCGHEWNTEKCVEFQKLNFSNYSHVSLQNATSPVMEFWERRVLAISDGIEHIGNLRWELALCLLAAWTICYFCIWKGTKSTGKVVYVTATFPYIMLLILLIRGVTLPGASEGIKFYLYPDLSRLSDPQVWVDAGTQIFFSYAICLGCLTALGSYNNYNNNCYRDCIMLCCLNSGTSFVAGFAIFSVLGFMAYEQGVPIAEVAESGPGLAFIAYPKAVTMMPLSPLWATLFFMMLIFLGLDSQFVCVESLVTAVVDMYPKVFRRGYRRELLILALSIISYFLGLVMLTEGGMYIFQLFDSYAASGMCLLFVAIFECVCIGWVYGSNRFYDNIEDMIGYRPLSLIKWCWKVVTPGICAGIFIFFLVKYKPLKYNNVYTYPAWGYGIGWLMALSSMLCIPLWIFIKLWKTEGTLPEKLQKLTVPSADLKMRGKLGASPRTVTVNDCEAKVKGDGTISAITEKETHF

[2] = target: T2, Sodium- and chloride-dependent GABA transporter 2 (Mus musculus, UniProt P31649); assay: Inhibition of mouse GAT2 expressed in HEK cells assessed as inhibition of [3H]-GABA uptake after 25 mins by liquid scintillation counting analysis
T2 sequence (P31649 whole entry): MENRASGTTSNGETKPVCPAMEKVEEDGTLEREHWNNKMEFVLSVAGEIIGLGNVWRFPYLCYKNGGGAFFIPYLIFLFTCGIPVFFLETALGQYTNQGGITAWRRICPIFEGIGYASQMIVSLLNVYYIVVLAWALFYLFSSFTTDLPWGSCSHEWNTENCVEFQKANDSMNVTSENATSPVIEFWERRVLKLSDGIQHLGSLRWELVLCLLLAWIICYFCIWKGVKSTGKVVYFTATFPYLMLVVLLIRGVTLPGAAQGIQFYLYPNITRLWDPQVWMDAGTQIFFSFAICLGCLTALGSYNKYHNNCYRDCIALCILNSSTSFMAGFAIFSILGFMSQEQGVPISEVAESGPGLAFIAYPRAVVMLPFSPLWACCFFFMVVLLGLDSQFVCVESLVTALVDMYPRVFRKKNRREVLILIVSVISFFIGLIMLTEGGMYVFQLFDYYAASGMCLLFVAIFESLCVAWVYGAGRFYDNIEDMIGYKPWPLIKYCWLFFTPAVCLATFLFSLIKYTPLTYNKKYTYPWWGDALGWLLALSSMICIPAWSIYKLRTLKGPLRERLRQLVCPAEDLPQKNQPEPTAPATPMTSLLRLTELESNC

SMILES	IC50 [1]	IC50 [2]
O=C(O)[C@@H]1CCCN(CCC=C(c2ccccc2)c2ccccc2)C1 [(R)-1-(4,4-Diphenyl-but-3-enyl)-piperidine-3-carboxylic acid]	195 µM	372 µM
O=C(c1ccccc1F)c1cc(F)ccc1/C=C\OCCN1CCCC(C(=O)O)C1 (centres undefined)		66.1 µM
O=C(c1ccccc1F)c1cc(F)ccc1/C=C/OCCN1CCCC(C(=O)O)C1 (centres undefined)	372 µM	141 µM
O=C(c1cccc(F)c1)c1ccc(F)cc1/C=C/OCCN1CCCC(C(=O)O)C1 (centres undefined)	339 µM	60.3 µM
O=C(O)C1CCCN(CCO/C=C\c2cc(F)ccc2Cc2cccc(F)c2)C1 (centres undefined)	20 µM	
O=C(O)C1CCCN(CCO/C=C\c2cc(F)ccc2Cc2ccc(F)cc2)C1 (centres undefined)	50.1 µM	91.2 µM
O=C(O)C1CCCN(CCO/C=C/c2ccccc2Cc2ccccc2)C1 (centres undefined)	37.2 µM	
O=C(O)C1CCCN(CCO/C=C\c2ccc(F)cc2Cc2ccccc2F)C1 (centres undefined)	19.5 µM	
O=C(O)C1CCCN(CCO/C=C\c2cc(F)ccc2Cc2ccccc2F)C1 (centres undefined)	28.2 µM	
O=C(O)C1CCCN(CCO/C=C\c2ccc(F)cc2Cc2ccc(F)cc2)C1 (centres undefined)	34.7 µM	
